These molecules were tested on NCI-H295R (assay: IC50 (antiproliferative, ATP content)). Details: 48 h.
Summary of the method: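 Compounds were pin-transferred at 8 final concentrations between 0.6 nM and 46 µM onto adrenocortical carcinoma cells (1500 per well, 1536-well plates) that had been cultured overnight in serum-free DMEM with ITS. Plates then stood 48 h at 37 °C, 5% CO2, and ATP was detected by CellTiter-Glo luminescence. IC50 was derived from logistic fits of normalised signal, and compounds giving no concentration response were noted as above the top dose.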

Row | Structure (SMILES) | IC50 [µM]
1 | NC(=O)c1ncn([C@@H]2O[C@H](CO)[C@@H](O)[C@H]2O)c1O | > 46
2 | NC(=O)CS(=O)C(c1ccccc1)c1ccccc1 (stereo not drawn) | > 46
3 | CN(C)C/C=C(/c1ccc(Br)cc1)c1cccnc1.Cl.Cl.O | > 46
4 | Cc1c(C(N)=O)cc([N+](=O)[O-])cc1[N+](=O)[O-] | > 46
5 | CCCCCOC(=O)Nc1nc(=O)n([C@@H]2O[C@H](C)[C@@H](O)[C@H]2O)cc1F | > 46
6 | Cl.O=C(O)/C=C/c1ccc(Cn2ccnc2)cc1 | > 46
7 | CC(C)(C)NCC(O)c1cc(Cl)c(N)c(C(F)(F)F)c1.Cl (stereo not drawn) | > 46
8 | O=[C@](OC)[C@H]3[C@@]2([H])C[C@](N4C[C@]([H])2C[C@H](OC)[C@@H]3OC)([H])C1=C(CC4)C(C=C5)=C(C=C5OC)N1.Cl | > 46
9 | C(=Cc1ccncc1)c1ccccc1 | > 46
10 | NCCc1ccc(O)c(O)c1 | > 46
11 | Cc1ccc(S(=O)(=O)O)cc1.c1cc2c(c(NC3=NCCN3)c1)CCCC2 | > 46
12 | CC[N+](CC)(CCNC(=O)C(=O)NCC[N+](CC)(CC)Cc1ccccc1Cl)Cc1ccccc1Cl.[Cl-].[Cl-] | > 46
13 | Br.CC(N)Cc1ccc(O)cc1 (stereo not drawn) | > 46
14 | CCCCCCCCCCCCCCCCCC(=O)OCC(O)CO (stereo not drawn) | > 46
15 | N#Cc1ccc(C(c2ccc(C#N)cc2)n2cncn2)cc1 | > 46
16 | COP(=S)(OC)Oc1ccc(SC)c(C)c1 | > 46
17 | CCNCC(O)c1cccc(O)c1.Cl (stereo not drawn) | > 46
18 | Cc1ncc(C[n+]2csc(CCOP(=O)(O)O)c2C)c(N)n1.[Cl-] | > 46
19 | OCC1(CO)COC(C(Cl)(Cl)Cl)OC1 | > 46
20 | CC(=O)Oc1c(C)c(C)c2c(c1C)CC[C@@](C)(CCC[C@H](C)CCC[C@H](C)CCCC(C)C)O2 | > 46
21 | Cc1cc(C)c(NC(=O)CN(CC(=O)O)CC(=O)O)c(C)c1Br | > 46
22 | OC(c1ccccc1)(c1ccccc1)C1CN2CCC1CC2 (stereo not drawn) | > 46

Row | Structure (SMILES) | IC50 [µM]
23 | CCOC(=O)c1cccnc1 | > 46
24 | CCC1C(C)=NN=C(c2ccc(OC)c(OC)c2)c2cc(OC)c(OC)cc21 (stereo not drawn) | > 46
25 | Cc1cccc(C)c1NC(=O)CN1CCCCCC1 | > 46
26 | CC(C)NCC(O)c1ccc2ccccc2c1 (stereo not drawn) | > 46
27 | O=C1[O][Pt]2([NH][C@@H]3CCCC[C@H]3[NH]2)[O]C1=O | > 46
28 | O.O.O.O.O.O.O=P([O-])([O-])OP(=O)([O-])OP(=O)([O-])[O-].[Na+].[Na+].[Na+].[Na+].[Na+] | > 46
29 | O=C(O)CCC(=O)Nc1ccc(S(=O)(=O)Nc2nccs2)cc1 | > 46
30 | O=C(O)C=CC(=O)Nc1ccc(S(=O)(=O)Nc2nccs2)cc1 | > 46
31 | O.O.Oc1cc(O)cc(O)c1 | > 46
32 | CNC(=O)OCC[N+](C)(C)C.[Cl-] | > 46
33 | CC(Cc1ccccc1)NCc1ccccc1Cl.Cl (stereo not drawn) | > 46
34 | CCCCCCCC(=O)OCC(COC(=O)CCCCCCC)OC(=O)CCCCCCC | > 46
35 | CNCCCC12CCC(c3ccccc31)c1ccccc12 | > 46
36 | CNC1=Nc2ccc(Cl)cc2C(c2ccccc2)=[N+]([O-])C1 | > 46
37 | CCCCN1CCCC1C(=O)Nc1c(C)cc(C)cc1C (stereo not drawn) | > 46
38 | CN1CCC(=C2c3ccccc3C=Cc3ccccc32)CC1 | > 46
39 | NC(=O)c1cn(Cc2c(F)cccc2F)nn1 | > 46
40 | O=C3[C@@H]4[C@]([C@](CC6)(C)[C@H]([C@@]5=COC=C5)O3)(O4)[C@@]2(C)[C@@]6([H])[C@@]1(CO7)[C@H](CC7=O)OC(C)(C)[C@@]([H])1CC2=O | > 46
41 | CCCCCl | > 46
42 | COc1ccc2c(c1)C(=O)N(CCc1ccc(S(=O)(=O)NC(=O)NC3CCCCC3)cc1)C(=O)C2(C)C | > 46
43 | CC1CC(O)CC(C)(C)C1 (stereo not drawn) | > 46
44 | C#C[C@]1(O)CC[C@H]2[C@@H]3CCC4=CC(=O)CC[C@@H]4[C@H]3C(=C)C[C@@]21CC | > 46

Row | Structure (SMILES) | IC50 [µM]
45 | CC(C)(C)NCC(O)c1cc(Cl)c(N)c(Cl)c1 (stereo not drawn) | > 46
46 | O=C(O)Cc1cccc2ccccc12 | > 46
47 | Cl.O=C1OC(CN2CCOCC2)CN1N=Cc1ccc([N+](=O)[O-])o1 (stereo not drawn) | > 46
48 | O=C(O)c1cc(=O)c2ccccc2o1 | > 46
49 | CCN(CC)CCOc1ccccc1OC | > 46
50 | NS(=O)(=O)Cc1noc2ccccc12 | > 46
51 | Cc1nc2n(c(=O)c1CCN1CCC(c3noc4cc(F)ccc34)CC1)CCCC2 | > 46
52 | COc1ccc(S(=O)(=O)N2c3ccc(Cl)cc3[C@@](O)(c3ccccc3Cl)[C@H]2C(=O)N2CCC[C@@H]2C(N)=O)cc1OC | > 46
53 | CCc1cccc(CC)c1NC(=O)CN(CC(=O)O)CC(=O)O | > 46
54 | O=C(O)CCC/C=C\C[C@@H]1[C@@H](/C=C/[C@@H](O)COc2cccc(C(F)(F)F)c2)[C@H](O)C[C@@H]1O | > 46
55 | CC1(C)S[C@@H]2[C@H](NC(=O)C3(N)CCCCC3)C(=O)N2[C@H]1C(=O)O | > 46
56 | CN1c2c(O)nc(N)nc2NCC1CNc1ccc(C(=O)NC(CCC(=O)[O-])C(=O)[O-])cc1.[Na+].[Na+] (stereo not drawn) | > 46
57 | CCC1(c2ccccc2)CCC(=O)NC1=O (stereo not drawn) | > 46
58 | O=C(O)C(=O)O.c1ccc2cc(C3=NCCN3)ccc2c1 | > 46
59 | N#CCC(=O)NN | > 46
60 | C[C@H]1O[C@H](OC[C@@H]2O[C@H](Oc3c(-c4ccc(OCCO)c(OCCO)c4)oc4cc(OCCO)cc(O)c4c3=O)[C@@H](O)[C@H](O)[C@H]2O)[C@@H](O)[C@@H](O)[C@@H]1O | > 46
61 | CC=CC(=O)N(CC)c1ccccc1C | > 46
62 | CC(C)NCC(O)c1ccc(N)c(C#N)c1 (stereo not drawn) | > 46
63 | C=CCOc1ccc(CC(=O)O)cc1Cl | > 46
64 | CN(C)[C@@H]1C(O)=C(C(N)=O)C(=O)[C@@]2(O)C(O)=C3C(=O)c4c(O)cccc4[C@@](C)(O)[C@H]3C[C@@H]12.Cl | > 46
65 | O=C(Nc1ccc(C(=O)O)c(O)c1)c1ccccc1 | > 46
66 | CC=CC=NNC(=O)c1ccncc1 | > 46

Row | Structure (SMILES) | IC50 [µM]
67 | CC(C)NCC(O)c1ccc(NS(C)(=O)=O)cc1.Cl (stereo not drawn) | > 46
68 | CCCCCCCCCCCC(=O)N(CCO)CCO | > 46
69 | OC1=C(C=C(/C=C(C#N)/C#N)C=C1)O | > 46
70 | CC1(C)CO[C@@H](CC(=O)O)CN1 | > 46
71 | O=C(O)CCc1nc2ccccc2[nH]1 | > 46
72 | CCCn1c(=O)[nH]c(=O)c2[nH]cnc21 | > 46
73 | O=C1[C@](NC(C3S\C(S3)=C(C(O)=O)/C(N)=O)=O)(OC)[C@]2([H])N1C(C(O)=O)=C(CSC4=NN=NN4C)CS2 (stereo partly drawn) | > 46
74 | NCCNCCNCCN | > 46
75 | COc1ccc(C(=O)c2ccccc2)c(O)c1 | > 46
76 | COc1ccccc1N1CCN(CC(O)COc2cccc3ccccc23)CC1 (stereo not drawn) | > 46
77 | O=C(O)c1ccc[n+]([O-])c1 | > 46
78 | CN/C(=N\C#N)NCCSCc1csc(N=C(N)N)n1 | > 46
79 | Cc1c(N(C)CS(=O)(=O)[O-])c(=O)n(-c2ccccc2)n1C.[Na+] | > 46
80 | CC(C(=O)O)c1cccc(C(=O)c2ccccc2)c1 (stereo not drawn) | > 46
81 | CCC(C)(C)c1ccc(O)cc1 | > 46
82 | NC(=O)CCCCC1CCSS1 (stereo not drawn) | > 46
83 | CN(C)[C@@H]1C(O)=C(C(N)=O)C(=O)[C@@]2(O)C(O)=C3C(=O)c4c(O)cccc4[C@@](C)(O)[C@H]3[C@H](O)[C@@H]12.O.O | > 46
84 | OCC=Cc1ccccc1 | > 46
85 | CC(=O)OC[C@H]1O[C@@](COC(C)=O)(O[C@H]2O[C@H](COC(C)=O)[C@@H](OC(C)=O)[C@H](OC(C)=O)[C@H]2OC(C)=O)[C@@H](OC(C)=O)[C@@H]1OC(C)=O | > 46
86 | N[C@@H](CSCCCO)C(=O)O | > 46
87 | OC(CCN1CCCCC1)(c1ccccc1)c1ccccc1 | > 46
88 | CN(C)CCN(Cc1ccccc1)c1ccccn1.O=C(O)CC(O)(CC(=O)O)C(=O)O | > 46

Row | Structure (SMILES) | IC50 [µM]
89 | O=C1CCC(c2ccc(-n3ccnc3)cc2)=NN1 | > 46
90 | CC(C)NCC1CCc2cc(CO)c([N+](=O)[O-])cc2N1 (stereo not drawn) | > 46
91 | O=c1cc[nH]c(=S)[nH]1 | > 46
92 | Cc1ccc(S(=O)(=O)NC(=O)NC2CCCCC2)cc1 | > 46
93 | CCOc1ccc(NC(C)=O)cc1 | > 46
94 | Nc1cccc2c1CN(C1CCC(=O)NC1=O)C2=O (stereo not drawn) | > 46
95 | Nc1ccn([C@@H]2O[C@H](CO)[C@@H](O)[C@@H]2O)c(=O)n1 | > 46
96 | CSc1ccc(C(=O)c2[nH]c(=O)[nH]c2C)cc1 | > 46
97 | CN(C(=O)CCCOc1ccc2[nH]c(=O)ccc2c1)C1CCCCC1 | > 46
98 | O=C(CCCN1CCN(c2ccccn2)CC1)c1ccc(F)cc1 | > 46
99 | COc1ccc(C(CN(C)C)C2(O)CCCCC2)cc1 (stereo not drawn) | > 46
100 | O=c1[n-]c2[nH]c(=O)[nH]c(=O)c2[nH]1.[Na+] | > 46
101 | Cc1ccc(C(C)C)c(O)c1 | > 46
102 | CCC1(c2ccccc2)C(=O)NC(=O)N(C(=O)c2ccccc2)C1=O (stereo not drawn) | > 46
103 | CC(C)(C(=O)c1cccnc1)c1cccnc1 | > 46
104 | CCCCC1C(=O)N(c2ccccc2)N(c2ccccc2)C1=O | > 46
105 | CCS(=O)(=O)C(C)(C)S(=O)(=O)CC | > 46
106 | CO/N=C(\C(=O)N[C@@H]1C(=O)N2C(C(=O)O)=C(CSc3nnnn3C)CS[C@H]12)c1csc(N)n1.CO/N=C(\C(=O)N[C@@H]1C(=O)N2C(C(=O)O)=C(CSc3nnnn3C)CS[C@H]12)c1csc(N)n1.Cl | > 46
107 | Cl.O=C(c2cn(C)c1ccccc12)[C@H]3CC=4N\C=N/C=4CC3 | > 46
108 | COC(=O)c1ccc(O)cc1 | > 46
